Data from ChEMBL document CHEMBL1158381, “Molecular properties of psychopharmacological drugs determining non-competitive inhibition of 5-HT3A receptors” (Eur J Med Chem, 2009).

Biological target: T1, 5-hydroxytryptamine receptor 3A (Homo sapiens) (UniProt P46098)
T1 sequence (whole entry): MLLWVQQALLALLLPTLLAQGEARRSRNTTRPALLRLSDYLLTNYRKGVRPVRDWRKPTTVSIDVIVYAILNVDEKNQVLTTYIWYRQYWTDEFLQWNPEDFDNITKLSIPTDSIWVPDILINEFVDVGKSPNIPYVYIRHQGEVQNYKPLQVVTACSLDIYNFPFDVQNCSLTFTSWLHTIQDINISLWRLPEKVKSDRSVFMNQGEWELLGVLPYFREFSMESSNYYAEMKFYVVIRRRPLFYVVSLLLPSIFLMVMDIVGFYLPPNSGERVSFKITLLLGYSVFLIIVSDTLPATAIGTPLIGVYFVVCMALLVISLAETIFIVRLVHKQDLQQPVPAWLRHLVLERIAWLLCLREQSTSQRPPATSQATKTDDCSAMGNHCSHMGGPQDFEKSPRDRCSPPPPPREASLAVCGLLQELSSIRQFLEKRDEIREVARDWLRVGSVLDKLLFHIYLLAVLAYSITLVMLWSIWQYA
Test: Antagonist activity at human 5HT3A receptor expressed in HEK293 cells assessed as inhibition of serotonin-induced inward Na+ current at >= 10 uM
Assay type: functional, cell-based

SMILES | inhibition [%]
CN(C)CCCN1c2ccccc2CCc2ccccc21 | > 50
COc1ccc2c(c1)N(C[C@H](C)CN(C)C)c1ccccc1S2 | < 50
OCCN1CCN(CCC=C2c3ccccc3Sc3ccc(C(F)(F)F)cc32)CC1 | > 50
c1ccc2nc3ccccc3cc2c1 | < 50
c1ccc2c(c1)CCc1ccccc1N2 | > 50
CNCCC(Oc1ccc(C(F)(F)F)cc1)c1ccccc1 (centres undefined) | > 50
CSc1ccc2c(c1)N(CCC1CCCCN1C)c1ccccc1S2 (centres undefined) | > 50
CCOc1ccccc1O[C@@H](c1ccccc1)[C@@H]1CNCCO1 | > 50
NC(=O)N1c2ccccc2CCc2ccccc21 | < 50
O=C(CCCN1CCC(O)(c2ccc(Cl)cc2)CC1)c1ccc(F)cc1 | < 50
CNCCCN1c2ccccc2CCc2ccccc21 | > 50
FC(F)(F)c1ccc2c(c1)Nc1ccccc1S2 | < 50
Cc1nc2n(c(=O)c1CCN1CCC(c3noc4cc(F)ccc34)CC1)CCCC2 | < 50
NC(=O)N1c2ccccc2C=Cc2ccccc21 | < 50
O=C(NCCN1CCOCC1)c1ccc(Cl)cc1 | < 50
CC(CN(C)C)CN1c2ccccc2CCc2ccccc21 (centres undefined) | > 50
c1ccc2c(c1)Nc1ccccc1S2 | < 50
c1ccc2c(c1)CCc1ccccc1C2 | < 50
OCCN1CCN(CCCN2c3ccccc3Sc3ccc(C(F)(F)F)cc32)CC1 | > 50
